From paper PMC11876671, “Investigating blood–brain barrier penetration and neurotoxicity of natural products for central nervous system drug development” (Scientific Reports, 2025)
Counter-ions that a name gives are not always drawn.

Test: not given
Conditions: PAMPA

SMILES	PAMPA-BBB Pe(10^-6 cm/sec)	PAMPA-BBB Pe
O=C(N[C@H](CO)[C@H](O)c1ccc([N+](=O)[O-])cc1)C(Cl)Cl [CHLORAMPHENICOL]	3.5 10^-6 cm/sec	–
Cc1nccc2c1[nH]c1ccccc12 [HARMAN]	–	60 10^-6 cm/sec

Same assay, conditions: Table S2: compounds exhibiting moderate to high PAMPA-BBB permeability

SMILES	PAMPA-BBB Pe
COc1cc2c(cc1OC)C(C(=O)c1ccc(OC)c(OC)c1O)=NCC2 [NCGC00160282-01]	19 10^-6 cm/sec
C[C@@H]1O[C@@H](O[C@H]2CC[C@@H](O[C@H]3[C@H](O)C[C@H](c4ccc5c(c4O)C(=O)C4=C(C5=O)[C@@]5(O)C(=O)C[C@](C)(O[C@H]6CC[C@H](O[C@H]7C=CC(=O)[C@H](C)O7)[C@H](C)O6)C[C@@]5(O)C=C4)O[C@@H]3C)O[C@H]2C)C=CC1=O [NCGC00163640-01]	17 10^-6 cm/sec
COc1ccc([C@H]2COc3c(ccc(O)c3OC)C2)c(OC)c1O [NCGC00179004-02]	127 10^-6 cm/sec
COc1ccc(-c2coc3cc(O)ccc3c2=O)c(O)c1O [NCGC00095474-02]	14 10^-6 cm/sec
COc1cc(OC)c2c(c1Cl)O[C@]1(C2=O)[C@H](C)CC(=O)C[C@@H]1OC [NCGC00016380-01]	31 10^-6 cm/sec
COC(=O)c1c(C)c2c(c(C)c1O)OC(=O)c1c(C)c(Cl)c(O)c(Cl)c1O2 [NCGC00095464-04]	281 10^-6 cm/sec
CCCCCc1c2c(cc(O)c1C(=O)O)OC(=O)c1cc(C(=O)CCCC)c(OC)cc1O2 [NCGC00160140-01]	120 10^-6 cm/sec
C=C(C)[C@H]1COc2cc3oc(=O)ccc3cc2O1 [NCGC00179107-03]	152 10^-6 cm/sec
CCOC(=O)c1c(C)cc(OC)cc1O [NCGC00095529-01]	290 10^-6 cm/sec

Same assay, conditions: Table S3: compounds exhibiting low PAMPA-BBB permeability

SMILES	PAMPA-BBB Pe(10^-6 cm/sec)
O=C1c2ccccc2-[n+]2ccc3c([nH]c4ccccc43)c21 [NCGC00346951-03]	<1 10^-6 cm/sec
COc1ccc(C(=O)CC(=O)O)c2c1C=CC(C)(C)O2 [NCGC00074767-03]	<1 10^-6 cm/sec
COc1c2ccoc2nc2c(OC)c(O[C@@H]3O[C@H](C)[C@@H](O)[C@@H](O)[C@H]3O)ccc12 [NCGC00160235-01]	<1 10^-6 cm/sec
O=C1CC[C@]23/C=C/C(=O)NCCCCNCCCNC(=O)/C=C/c4ccc(c2c4)O[C@@H]3C1 [NCGC00263997-01]	<1 10^-6 cm/sec
COc1ccc2[nH]cc(CCO)c2c1 [NCGC00163352-01]	9.4 10^-6 cm/sec
COc1cc(C(=O)OC2C[C@H]3CC[C@@H](C2)N3C)ccc1O (some centres unmarked) [NCGC00179405-02]	8.5 10^-6 cm/sec
COc1c(O)cc2c(=O)oc3c(OC)c(O)cc4c(=O)oc1c2c34 [NCGC00160203-01]	<1 10^-6 cm/sec
OC1c2ccccc2N=C2CCCN21 (centres unmarked) [NCGC00163606-01]	5.3 10^-6 cm/sec
O=C1N[C@@H](Cc2c[nH]c3ccccc23)C(=O)N[C@H]1Cc1c[nH]c2ccccc12 [NCGC00160254-01]	<1 10^-6 cm/sec
CC1=CC(=O)/C(=C(/C)O)C(=O)O1 [NCGC00254206-01]	3.3 10^-6 cm/sec
Cn1cnc2c(ncn2[C@@H]2O[C@H](CO)[C@@H](O)[C@H]2O)c1=N [NCGC00163305-01]	<1 10^-6 cm/sec
CNCCCCc1cnc(C)c2[nH]c3ccccc3c12 [NCGC00160349-01]	<1 10^-6 cm/sec
OC[C@H]1O[C@@H](Oc2cccc3ccccc23)[C@H](O)[C@@H](O)[C@H]1O [NCGC00351880-01]	<1 10^-6 cm/sec
COC1=C(O)C(=O)c2c(cc3oc(C(C)=O)c(O)c3c2O)C1=O [NCGC00178066-02]	<1 10^-6 cm/sec
O=C(NC[C@H](O)c1ccccc1)c1ccccc1 [NCGC00160191-01]	<1 10^-6 cm/sec

Test: in vitro
Conditions: PAMPA, PAMPA-BBB Pe(10^-6 cm/sec)

SMILES	Papp [×10⁻⁶ cm/s]
O=c1ccc2ccc(O)cc2o1 [UMBELLIFERONE]	< 1
CC(=O)O[C@@]12CO[C@@H]1C[C@H](O)[C@@]1(C)C(=O)[C@H](O)C3=C(C)[C@@H](O)C[C@@](O)([C@@H](OC(=O)c4ccccc4)[C@H]21)C3(C)C [10-DEACETYL BACCATIN III]	< 1
CN[C@H](CC(C)C)C(=O)N[C@H]1C(=O)N[C@@H](CC(N)=O)C(=O)N[C@H]2C(=O)N[C@H]3C(=O)N[C@H](C(=O)N[C@H](C(=O)O)c4cc(O)cc(O)c4-c4cc3ccc4O)[C@H](O)c3ccc(c(Cl)c3)Oc3cc2cc(c3O[C@@H]2O[C@H](CO)[C@@H](O)[C@H](O)[C@H]2O[C@H]2C[C@](C)(N)[C@H](O)[C@H](C)O2)Oc2ccc(cc2Cl)[C@H]1O [VANCOMYCIN HYDROCHLORIDE]	< 1

Same assay, conditions: PAMPA, PAMPA-BBB Pe(10^-6 cm/sec), Table S3: compounds exhibiting low PAMPA-BBB permeability

SMILES	Papp [×10⁻⁶ cm/s]
Cn1c(=O)[nH]c2ncn(C)c2c1=O [PARAXANTHINE]	< 1
COC(=O)C[C@](O)(CCC(C)(C)O)C(=O)O[C@@H]1C(OC)=C[C@]23CCCN2CCc2cc4c(cc2[C@H]13)OCO4 [HARRINGTONINE]	< 1
CC1NC(C(=O)O)Cc2c1[nH]c1ccccc21 (centres unmarked)	< 1
O=c1cc(O)cc(/C=C/c2ccc(O)c(O)c2)o1 [HISPIDIN]	< 1
O=C(O)[C@H]1O[C@@H](Oc2c(-c3ccc(O)c(O)c3)oc3cc(O)cc(O)c3c2=O)[C@H](O)[C@@H](O)[C@@H]1O [QUERCITURONE]	4.2
c1cncc([C@@H]2CCCCN2)c1 [ANABASINE]	3.4
CC(C)(COP(=O)(O)OP(=O)(O)OC[C@H]1O[C@@H](n2cnc3c(N)ncnc32)[C@H](O)[C@@H]1OP(=O)(O)O)[C@@H](O)C(=O)NCCC(=O)NCCS [COENZYME A]	< 1
Cc1ncc(CO)c(CO)c1O [[…]]	< 1
Cc1cc(O)c2c(=O)c3c(O)cc(O)c4c5c(O)cc(O)c6c(=O)c7c(O)cc(C)c8c1c2c(c34)c(c78)c65 [HYPERICIN]	6.4
O=C1c2c(O)cc(O)cc2O[C@H](c2cc(O)c(O)c(O)c2)[C@H]1O [DIHYDROMYRICETIN]	< 1
C[S+](CC[C@H](N)C(=O)[O-])C[C@H]1O[C@@H](n2cnc3c(N)ncnc32)[C@H](O)[C@@H]1O (some centres unmarked) [S-ADENOSYLMETHIONINE]	< 1
N[C@@H](Cc1c[nH]c2ccc(O)cc12)C(=O)O [CINCOFARM]	< 1
CC(=O)c1ccc(O[C@@H]2O[C@H](CO)[C@@H](O)[C@H](O)[C@H]2O)cc1 [PICEIN]	< 1
COc1cc(C(O)C(=O)O)ccc1O (centres unmarked) [[…] ACID]	5.6
COc1cc2c(cc1O)C[C@@H]1NCCc3cc(OC)c(OC)c-2c31 [LAUROTETANINE]	< 1
O=C1/C(=C\c2ccc(O)c(O)c2)Oc2c1ccc(O[C@@H]1O[C@H](CO)[C@@H](O)[C@H](O)[C@H]1O)c2O [[…]]	1

Same assay, conditions: PAMPA, PAMPA-BBB Pe, Table S2: compounds exhibiting moderate to high PAMPA-BBB permeability

SMILES	Papp [×10⁻⁶ cm/s]
COc1cc(C2c3cc4c(c(O)c3CC3COC(=O)C32)OCO4)cc(OC)c1O (stereo not drawn) [.ALPHA.-PELTATIN A]	14
CN1CCCCC1c1ccc(-c2cccnc2)nc1 (centres unmarked) [ANABASAMINE]	31
COC(=O)C1=CO[C@@H](C)[C@@H]2CN3CCc4c([nH]c5ccccc45)[C@@H]3C[C@H]12 [TETRAHYDROALSTONINE]	> 530
CCOc1ccc(O)cc1 [P-HYDROXYPHENETOLE]	35
C=C[C@]12CN(C)[C@@H]3[C@H]4CO[C@H](C[C@H]41)[C@]1(C(=O)Nc4ccccc41)[C@@H]32 [GELSEMINE]	13
Cc1ccc(C(C)C)c(O)c1 [THYMOL]	168
Cn1cccc1-c1cccnc1 [NICOTYRINE]	102
O=c1c(O)c(-c2ccccc2)oc2ccccc12 [FLAVONOL]	181
